Common to all, as to format: cell-based, human
Data set [1] concerns J82, T24, and UM-UC-3 bladder cancer cell lines.
Data set [2] has as its system MGH-U4 transfected with PTEN shRNA.
In data set [3] the test system is VMCUB-3 transfected with H-ras (G12V).
Data set [4] concerns J82.
Data set [5] deals with T24.
Data set [6] deals with UM-UC-3.
Data set [7] concerns VMCUB-3.
Data set [8] concerns MGH-U3.

Turning to `COc1ccc2c(c1)c(C1=C(c3c[nH]c4ccccc34)C(=O)NC1=O)cn2CCCN(C)C` [Gö-6983], the “effect on BCG uptake” value in data set [1] is listed as “not inhibited”.

For `Oc1ccc2ccccc2c1SSc1c(O)ccc2ccccc12` [IPA-3], the “effect on the increase in BCG uptake after PTEN knockdown” value in data set [2] is “completely abrogated the increase in BCG uptake”. The “effect on increased BCG uptake in a cell line with activated Ras” value in data set [3] is given as “inhibited increased BCG uptake”.

Take `C[C@@H](N)[C@H]1CC[C@H](C(=O)Nc2ccncc2)CC1` [Y-27632]: the “effect on BCG uptake” value in data set [1] is recorded as “did not have a significant effect”.

For the molecule `Cc1ccc2c(c1)C(=O)C1(O)CCN(c3ccccc3)C1=N2` (stereo not shown) [blebbistatin], the “effect on BCG uptake” value in data set [1] is “not inhibited”.

In the case of `O=c1c(-c2ccc(O)cc2)coc2cc(O)cc(O)c12` [genistein], the entries for the “effect on BCG uptake” value in data set [4], in data set [5] and in data set [6] were “significantly inhibited”, “not” and “not”, respectively.

With “PTEN shRNA (CCGGCCACAGCTAGAACTTATCAAACTCGAGTTTGATAAGTTCTAGCTGT)”, the “increase in uptake of BCG compared to non-targeting shRNA control” value was “not seen” in data set [7] and “approximately 2 fold” in data set [8].

Values taken from US20150185224A1, “[…] CANCER RESPONSIVENESS TO BCG” (MEMORIAL SLOAN-KETTERING CANCER CENTER, priority 2012, published 2015).
